Experimental data reported in BigSolDB 2.1.

Nc1nnn[nH]1
solubility (mole fraction)
Conditions | 283.15 K | 288.15 K | 293.15 K | 298.15 K | 303.15 K | 308.15 K | 313.15 K | 318.15 K | 323.15 K
in 1,4-dioxane | – | 0.0178 | 0.0217 | 0.0267 | 0.0328 | 0.0393 | 0.0463 | 0.0551 | 0.0652
in DMF | 0.0284 | 0.0326 | 0.038 | 0.0437 | 0.0493 | 0.0559 | 0.0628 | 0.0707 | 0.0795
in NMP | 0.0223 | 0.0265 | 0.0312 | 0.0366 | 0.0432 | 0.0502 | 0.0577 | 0.0657 | 0.0741
in acetone | 0.000749 | 0.000832 | 0.000916 | 0.00102 | 0.00112 | 0.00123 | 0.00135 | 0.00149 | 0.00162
in acetonitrile | 0.000193 | 0.000213 | 0.000235 | 0.000256 | 0.00028 | 0.000304 | 0.000329 | 0.000357 | 0.000385
in ethanol | 0.0008 | 0.000896 | 0.00099 | 0.00109 | 0.00121 | 0.00133 | 0.00145 | 0.0016 | 0.00175
in ethyl acetate | 0.000499 | 0.000572 | 0.000649 | 0.000734 | 0.000834 | 0.000943 | 0.00107 | 0.00122 | 0.00139
in isopropanol | 0.000762 | 0.000853 | 0.000946 | 0.00105 | 0.00116 | 0.00128 | 0.00141 | 0.00154 | 0.00169
in methanol | 0.000615 | 0.000681 | 0.000764 | 0.000858 | 0.000954 | 0.00106 | 0.00118 | 0.00131 | 0.00147
in n-butanol | 0.000455 | 0.00051 | 0.000577 | 0.00066 | 0.000755 | 0.000869 | 0.001 | 0.00115 | 0.00131
in n-propanol | 0.000694 | 0.000773 | 0.000868 | 0.000962 | 0.00106 | 0.00117 | 0.00129 | 0.00142 | 0.00157
in toluene | 0.00135 | 0.00156 | 0.00177 | 0.00201 | 0.00229 | 0.0026 | 0.00295 | 0.00335 | 0.00381
